Measured values reported in paper PMC8570331, “8-Hydroxyquinoline-Amino Acid Hybrids and Their Half-Sandwich Rh and Ru Complexes: Synthesis, Anticancer Activities, Solution Chemistry and Interaction with Biomolecules” (International Journal of Molecular Sciences, 2021).
Entries after “also recorded” stand apart in the source; their conditions may differ.

How the values were obtained:
pGEX-6P-1 plasmid DNA = test: In vitro DNA cleavage analysis, agarose gel electrophoresis; type: biochemical; details: 50 ng plasmid, 0–100 µM compound, 37 °C, up to 72 h, pH 7.4
Procedure: In this assay, both single-stranded and double-stranded cleavage can be detected using bacterial plasmid DNA since the plasmid changes from the intact superhelical (sc) conformation to open circular (oc) and linear over digestion, which can be well detected by agarose gel electrophoresis. […] The RhCp* complex behaved similarly up to 10 µM, whereas at 100 µM concentration, the superhelical DNA remained intact during the incubation period, although the disappearance of the open circular DNA line is seen after 72 h. The observed effect is clearly not related to DNA cleavage; since fragmentation or the appearance of linear DNA could not be seen, the supercoiled DNA form was still visible. We can assume that the decrease in intensity might be due to the competition for DNA between the concentrated complex and EB (that is used for the detection of DNA in the gel).
Before the measurements, the reaction buffer was treated with 5 mg/L Chelex-100 (Sigma-Aldrich) cation exchange resin for 30 min at 25 °C. This was followed by filtration of the buffer through 0.2 µm pore size sterile, non-pyrogenic/endotoxin-free non-cytotoxic PES filter (Sarstedt) under laminal flow. The tested compounds were dissolved in this filtered cation exchanged buffer. pGEX-6P-1 DNA was purified by GeneJET plasmid maxiprep kit (Thermo Scientific™, Waltham, MA, USA) and was treated with Chelex-100 resin and filtered as described previously, and was followed by buffer exchange of the DNA sample using Amicon 10K 0.5 mL filters (4 × 5 min, 14,000 g, 25 °C) to the filtered reaction buffer. […] Based on agarose gel electrophoresis, no genomic DNA contamination was detected, and the plasmid DNA is largely in superhelical conformation with a small fraction of open circular form. In a typical reaction, 10 µL aliquots containing 50 ng DNA and 0–100 µM compound were incubated at 37 °C from 0 h up to 3 days. The reaction mixture was immediately examined after incubation or frozen at −30 °C until the gel electrophoresis experiment. […] Images were recorded by a Uvitec BTS 20MS gel documentation system.

[1] = system: Colo-205 human colon adenocarcinoma cell line (doxorubicin-sensitive); test: MTT cytotoxicity assay in Colo-205; type: cell-based; details: 72 h incubation
Procedure: The in vitro cytotoxic activity of the novel water-soluble amino acid derivatives of HQCl and their RhCp* and RuCym complexes was measured by the thiazolyl blue tetrazolium bromide (MTT) assay in two human colon adenocarcinoma cell lines (Colo-205 and Colo-320) and in one non-tumoral human lung fibroblast cell line (MRC-5). The results are given in terms of IC50 values (Table 1). Colo-205 is a drug-sensitive cell line with a normal ABCB1 transporter expression pattern, while Colo-320 is multidrug-resistant and overexpresses the ABCB1 system.
All cell culture reagents were obtained from Sigma-Aldrich and plasticware from Sarstedt (Nümbrecht, Germany). Human colonic Colo-205 doxorubicin-sensitive and Colo-320/MDR-LRP multidrug-resistant adenocarcinoma and MRC-5 human embryonal lung fibroblast cell lines were purchased from LGC Promochem, Teddington, UK. The colonic adenocarcinoma cells were cultured in Roswell Park Memorial Institute (RPMI) 1640 medium supplemented with 10% heat-inactivated fetal bovine serum, 2 mM L-glutamine, 1 mM sodium pyruvate and […]. The MRC-5 cell line was cultured in Eagle’s Minimal Essential Medium (EMEM, Sigma-Aldrich, St. Louis, MO, USA) supplemented with a non-essential amino acid (NEAA) mixture (Sigma-Aldrich, St. Louis, MO, USA) a selection of vitamins, 10% heat-inactivated foetal bovine serum (FBS), 2 mM L-glutamine (Sigma-Aldrich, St. Louis, MO, USA), 1 mM Na-pyruvate (Sigma-Aldrich, St. Louis, MO, USA), nystatin (Sigma-Aldrich, St. Louis, MO, USA) and a penicillin-streptomycin mixture (Sigma-Aldrich, St. Louis, MO, USA) in con-centrations of 100 U/L and 10 mg/L, respectively. The cells were incubated at 37 °C, in a 5% CO2, 95% air atmosphere. All cell lines were detached with Trypsin-Versene (EDTA) solution for 5 min at 37 °C.
The tested compounds were dissolved in 10% (v/v) DMSO/H2O using 4 mM concentration. Doxorubicin (Merck, Darmstadt, Germany) was used as a positive control. Then stock solutions were diluted in complete culture medium, and two-fold serial dilutions of compounds were prepared in 100 μL of the medium, horizontally. The semi-adherent colonic adenocarcinoma cells were treated with Trypsin-Versene (EDTA) solution. They were adjusted to a density of 1 × 10^4 cells in 100 μL of RPMI 1640 or EMEM medium and were added to each well, with the exception of the medium control wells. The final volume of the wells containing compounds and cells was 200 μL. The plates containing Colo-205, Colo-320 or MRC-5 cells were incubated at 37 °C for 72 h; at the end of the incubation period, 20 μL of MTT solution (from a stock solution of 5 mg/mL) were added to each well. After incubation at 37 °C for 4 h, 100 μL of SDS solution (10% in 0.01 M HCI) were added to each well, and the plates were further incubated at 37 °C overnight. […] The IC50 values were obtained from at least 3 independent experiments.

Ac-Phe–His–Ala-NH2 (FHA) = test: Binding to the His model tripeptide FHA by 1H NMR; details: pH 7.4 (PBS’), 0.5 or 1 mM
Source text: The slow binding kinetics indicates coordination binding mode, and the monodentate coordination of a side chain donor of HSA takes place most likely by the replacement of the co-ligand water or chloride, while the original bidentate (N,O) ligand remains coordinated, as it was also reported to analogous high stability RuCym and RhCp* complexes.
Similar reaction rates with FHA were found for the HQCl-D-Pro and HQCl-D-hPro complexes, and the reaction with this simple oligopeptide is much faster compared to the HSA. Conditional stability constants determined for the complex-FHA ternary species by ^1H NMR spectroscopic measurements (exemplary spectra are presented in Figure S29) are shown in Table 4. […] In all, this oligopeptide model can serve as a good binding model for surface-exposed side chains, although it provides limited information about binding events at more deeply located binding pockets of HSA, where the role of secondary interactions might be more significant.
Bruker Avance III HD Ascend 500 Plus instrument (Billerica, MA, USA) was used for NMR studies. ^1H NMR spectroscopic measurements were carried out with a WATERGATE water suppression pulse scheme in the presence of 10% (v/v) D2O in most cases. DSS internal standard was added to samples to obtain reference peaks. Complex concentrations were 0.5 mM or 1.0 mM, and 0.5 equiv. HSA was added. ^1H NMR titrations were carried out in the presence of 0.2 M KNO3. With the FHA model peptide, the measurements were performed at 0.5 or 1 mM metal complex concentrations, and 1:1, 1:2 or 2:1 peptide-to-metal complex ratios were applied. The computer program HypSpec was used to obtain stability constants.

Row | SMILES | DNA cleavage / DNA damage (pGEX-6P-1 plasmid DNA) | IC50 [1] | FHA logKFHA′ (Ac-Phe–His–Ala-NH2 (FHA))
1 | O=C(O)[C@H]1CCCCN1Cc1cc(Cl)c2cccnc2c1O [HQCl-D-hPro, (R)-5-chloro-7-((homoproline-1-yl)methyl)8-hydroxyquinoline] | do not induce DNA cleavage; also recorded: No DNA damage was observed |  | 
2 | Cc1c(C)c(C)[c-](C)c1C.O=C(O)[C@H]1CCC[NH+]1Cc1cc(Cl)c2cccnc2c1[O-].[Cl-].[Cl-].[Rh+3] [RhCp*–HQCl-D-Pro, [RhCp*(HQCl-D-Pro)Cl]Cl] |  | 31.5 ± 1.4 µM | 4.4 ± 0.2
3 | Cc1c(C)c(C)[c-](C)c1C.O=C(O)[C@H]1CCCC[NH+]1Cc1cc(Cl)c2cccnc2c1[O-].[Cl-].[Cl-].[Rh+3] [RhCp*–HQCl-D-hPro, [RhCp*(HQCl-D-hPro)Cl]Cl] | do not induce DNA cleavage | 21.5 ± 0.6 µM | 4.5 ± 0.2
4 | Cc1ccc(C(C)C)cc1.O=C(O)[C@H]1CCC[NH+]1Cc1cc(Cl)c2cccnc2c1[O-].[Cl-].[Cl-].[Ru+2] [RuCym–HQCl-D-Pro, [RuCym(HQCl-D-Pro)Cl]Cl] |  | > 100 µM | 4.4 ± 0.3
5 | Cc1ccc(C(C)C)cc1.O=C(O)[C@H]1CCCC[NH+]1Cc1cc(Cl)c2cccnc2c1[O-].[Cl-].[Cl-].[Ru+2] [RuCym–HQCl-D-hPro, [RuCym(HQCl-D-hPro)Cl]Cl] | do not induce DNA cleavage; also recorded: No DNA damage was observed | > 100 µM | 4.6 ± 0.2
